The structures appear in SMILES notation.

Data set [1] is described as follows: Solubility of crushed and screened TTM particles in water. It is filed as physicochemical. The note with it: particles after 70-mesh screen. The text has this: The present inventors undertook a study to determine the size of the TTM particles after a crushing and screening process using a 70-mesh screen that would allow a maximum particle size of 210 micrometers. The size range was as follows: 10% under 13.3 μm; 50% under 44.5 μm; 90% under 122 μm.
This is not unsurprising, as saturation will occur in fluids as a known principle and does illustrate enough fluid is required to be available to dissolve the administered TTM to create optimal bioavailability. Further, larger particles with […] surface area would be expected to remain after the smaller particles dissolve.

The nature of data set [2]: Stability of TTM filled in enteric capsules exposed to stomach acid / simulated stomach acid. It is filed as physicochemical. The note with it: additional enteric coatings applied; after one hour. How it is done:
The present inventors have determined that while the designed disintegration properties of an enteric capsule remain stable for 2 hours and the designed enteric capsule may have a diffusion rate below 7.5% in the first two hours, the inventors research confirmed in fact stomach acid or moisture from the stomach does enter the capsule, and the enteric interior capsule walls become wet, thereby subjecting the TTM to the acid or moisture, causing rapid degradation of the enteric capsule from the chemical reaction with the moistened TTM.
The present inventors have determined that the TTM releases H2S gas when a small amount of stomach acid or moisture enters the enteric capsule, not only causing degradation of the TTM, but also the moisture seeping through the capsule causes TTM to release H2S as part of the degradation process, which then comes in contact with the inside of the enteric capsule. This dissolves the enteric capsule from inside the capsule and leads to a catastrophic capsule failure within 15 to 30 minutes.
This is not a preferred solution as the TTM is getting wet inside the capsule and degrading, creating the problem of not knowing how much TTM will be left to be absorbed by the patient after the tablet leaves the stomach. Such a reaction reduces the amount of drug being available to the patient, thereby reducing the drugs intended effect due to less TTM available. […]

In the case of `[SH-].[SH-].[S]=[Mo]=[S]` [TTM, tetrathiomolybdate], the solubility in water result is reported as “dissolved fully over time” in data set [1] (60 mg in 300 ml water) and “did not fully dissolve” in data set [1] (160 mg in 300 ml of water). In addition, the “TTM leakage from enteric capsule with additional enteric coatings” value in data set [2] is “still leaking out”.
